From PubChem BioAssay (NCI)
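Briefly, cells in 96-well plates were exposed to five compound concentrations for 48 h, and endpoints were estimated by linear interpolation. GI50 = concentration required for 50% inhibition of growth. TGI: concentration producing complete growth inhibition.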 *1 amine or outer side, *2 acyl side, *3 side chain or, on linkers, in order; H or OH if unused. Where a SMILES comes first, the peptide text is derived from it. Bridges are numbered along the chain shown (N, C = ends). [ ]: non-standard residue; d: D form. The star is where a group is joined. X19 = O=C([C@H](N[*:1])c1ccc(O[C@H]2O[C@@H](CO)[C@@H](O)[C@@H](O)[C@H]2O[C@@H]2O[C@H](CO)[C@H](O)[C@H](O)[C@@H]2O)cc1)[*:2]; X18 = NC(=O)[C@@H](O[*:3])[C@H](N[*:1])C(=O)[*:2]; X20 = O=C([C@H](N[*:1])c1ccc(O)c(Cl)c1)[*:2]; d(aThr) = C[C@@H](O)[C@@H](N)C(=O)O; dHpg = N[C@@H](C(=O)O)c1ccc(O)cc1; X17 = CC(C)C/C=C/C=C/C(=O)*; dOrn = NCCC[C@@H](N)C(=O)O

Key:
Assay in all cases: NCI-60 cell line screen, 48 h
K-562 leukemia = tested on: K-562 leukemia
MALME-3M melanoma = tested on: MALME-3M melanoma
U251 CNS = tested on: U251 CNS
MDA-MB-435 = tested on: MDA-MB-435
HT29 colon = tested on: HT29 colon
HCC-2998 colon = tested on: HCC-2998 colon
M14 melanoma = tested on: M14 melanoma
BT-549 breast = tested on: BT-549 breast
UACC-62 melanoma = tested on: UACC-62 melanoma
NCI-H226 lung = tested on: NCI-H226 lung

Compound | GI50 (K-562 leukemia) [µM] | TGI (K-562 leukemia) [µM] | GI50 (MALME-3M melanoma) [µM] | TGI (MALME-3M melanoma) [µM] | GI50 (U251 CNS) [µM] | TGI (U251 CNS) [µM] | GI50 (MDA-MB-435) [µM] | TGI (MDA-MB-435) [µM] | GI50 (HT29 colon) [µM] | TGI (HT29 colon) [µM] | GI50 (HCC-2998 colon) [µM] | TGI (HCC-2998 colon) [µM] | GI50 (M14 melanoma) [µM] | TGI (M14 melanoma) [µM] | GI50 (BT-549 breast) [µM] | TGI (BT-549 breast) [µM] | GI50 (UACC-62 melanoma) [µM] | TGI (UACC-62 melanoma) [µM] | GI50 (NCI-H226 lung) [µM] | TGI (NCI-H226 lung) [µM]
CC(C)C/C=C/C=C/C(=O)N[C@@H](CC(N)=O)C(=O)N[C@@H]1C(=O)N[C@H](c2ccc(O)cc2)C(=O)N[C@H](CCCN)C(=O)N[C@H]([C@@H](C)O)C(=O)N[C@H](c2ccc(O)cc2)C(=O)N[C@H](c2ccc(O)cc2)C(=O)N[C@H]([C@H](C)O)C(=O)N[C@H](Cc2ccccc2)C(=O)N[C@H](CCCN)C(=O)N[C@H](c2ccc(O[C@H]3O[C@@H](CO)[C@@H](O)[C@@H](O)[C@H]3O[C@@H]3O[C@H](CO)[C@H](O)[C@H](O)[C@@H]3O)cc2)C(=O)N[C@H]([C@H](C)O)C(=O)N[C@H](c2ccc(O)cc2)C(=O)NCC(=O)N[C@H](CC(C)C)C(=O)N[C@H](C)C(=O)N[C@H](c2ccc(O)c(Cl)c2)C(=O)O[C@@H]1C(N)=O (X17-N[X18][dHpg][dOrn][d(aThr)][dHpg][dHpg][dT][dF][dOrn][X19][dT][dHpg]G[dL][dA][X20]; ester 2-C) | 36.3 | > 100 | 29.7 | 65.5 | 24.1 | 55 | 26 | 72.8 | 33.2 | > 100 | 57.2 | > 100 | 38.4 | > 100 | 37.6 | 87.1 | 21.2 | 45.1 | – | –
COc1cccc(-c2nc(-c3ccc(NC(=O)c4ccccc4)cc3)[nH]c2-c2ccnc(Br)c2)c1 | 1.67 | > 100 | 2.86 | > 100 | 2.1 | > 100 | 4.72 | > 100 | 2.69 | > 100 | – | – | 2.91 | > 100 | 3.3 | > 100 | 2.95 | > 100 | 2.95 | > 100
O=C1CC2C(=O)C1C(C(=O)O)C2C(=O)O (configuration not stated) | – | > 100 | – | > 100 | – | > 100 | – | > 100 | – | > 100 | – | – | – | > 100 | – | > 100 | – | > 100 | – | > 100
Cc1ccc(C(=O)CCC2C(=O)CC(C)(C)CC2=O)cc1 | – | – | – | – | – | > 100 | – | > 100 | – | > 100 | – | > 100 | – | > 100 | – | > 100 | – | > 100 | – | > 100
COc1ccc(-c2nc(N)c3ncn(C4OC(CO)C(O)C4O)c3n2)cc1 (configuration not stated) | – | > 100 | – | > 100 | – | > 100 | – | > 100 | – | > 100 | – | – | – | > 100 | – | > 100 | – | > 100 | – | > 100
CN(C)Cc1cccc(CN(C)C)[c]1[Sn]([Br])([c]1ccccc1)[c]1ccccc1 | – | – | 12.6 | 27.4 | 3.71 | 15.5 | 17.1 | 41.6 | 8.18 | 71.8 | – | – | 15.9 | 30.6 | 1.83 | 7.94 | – | – | – | –
O=C(NC1CCN(Cc2ccccc2)CC1)c1cc(C(=O)NC2CCN(Cc3ccccc3)CC2)cc(C(=O)NC2CCN(Cc3ccccc3)CC2)c1 | 2 | > 50 | 1.12 | 2.52 | 1.52 | 5.66 | 0.923 | 1.85 | 1.3 | 4.17 | 7.37 | 16.6 | – | – | 2.01 | 11.4 | 7.71 | 15.2 | 14.7 | > 50
COc1ccc(C(=O)C(Br)C(Br)C(=O)O)cc1 (configuration not stated) | – | 82.9 | – | 46.2 | – | > 100 | – | > 100 | – | 31 | – | – | – | > 100 | – | 63.7 | – | > 100 | – | > 100
N=C1C(c2nc3ccccc3s2)=C(O)CN1c1ccc(Cl)cc1Cl | 10.7 | 64.5 | – | – | 10.1 | 29.9 | 16.5 | > 100 | 16.4 | > 100 | 10.4 | 31.1 | 23.7 | > 100 | 17.8 | 49.6 | 12 | 52.9 | 16.9 | 40.7
COC1CC2C=CC3C4OC2(/C(C)=C/C(C)C(C(C)O)OC1=O)C3C(O)C(C)C4OC(=O)c1ccc[nH]1 (configuration not stated) | – | – | – | – | – | > 100 | – | > 100 | – | > 100 | – | > 100 | – | > 100 | – | > 100 | – | > 100 | – | –
O=S(=O)(NCCCNc1cc(-c2cn(-c3ccccc3)nc2-c2cccc(O)c2)ccn1)c1cccc2ccccc12 | 0.614 | 4.48 | – | – | 1.78 | 13.1 | 3.48 | 37.4 | 0.508 | 1.71 | 1.75 | 3.45 | 2.14 | 5.3 | 2.47 | 7.58 | 2.34 | 8.38 | 3.4 | 45.7
NCC1OC(n2cnc3c(=O)[nH]c(N)nc32)C(O)C1O (configuration not stated) | – | > 100 | – | > 100 | – | > 100 | – | > 100 | – | > 100 | – | – | – | > 100 | – | > 100 | – | > 100 | – | > 100
Oc1cccc(Cn2c(-c3cccc(O)c3O)nc3ccccc32)c1O | 5.56 | > 100 | – | – | 4.44 | 26.2 | 2.13 | 15.3 | 15.5 | > 100 | 11 | 30 | 3.3 | 15.5 | 18.9 | 81.1 | 3.1 | 12.6 | 3.95 | 21.9
Cc1ccc2c(N/N=C\c3ccco3)cc(C)nc2n1 | 3.02 | 11.2 | – | – | 1.94 | 7.06 | 2.63 | 10.7 | 2.7 | 8.95 | 2.7 | 7.4 | 2.05 | 4.04 | 4.37 | 14.9 | 1.81 | 3.69 | 20.1 | 60.3
O=C1C(Cl)=C(Nc2cccc(O)c2)C(=O)N1c1cccc(Cl)c1 | 29.8 | 79 | 51.7 | > 100 | 57.7 | > 100 | 43 | > 100 | 37.3 | > 100 | – | – | 28.8 | > 100 | 27.3 | > 100 | 27 | > 100 | 26 | 76.9
